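Each compound was tested at five concentrations against cells in 96-well plates for 48 hours. Abbreviation: GI50, concentration required for 50% inhibition of growth.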 The source made the active and inactive calls. Cut-off read from the data, not from the text of the source: active = GI50 up to about 1.1 µM and inactive = higher.
Columns and labels:
Assay in all cases: NCI tumour cell line growth inhibition, 48 h
[1] = test system: SK-MEL-2
[2] = test system: OVCAR-4
[3] = test system: SK-MEL-5
[4] = test system: HOP-62
[5] = test system: SF-539
[6] = test system: SNB-75
[7] = test system: M19-MEL
[8] = test system: SF-268
[9] = test system: HCT-116
[10] = test system: COLO 205
[11] = test system: SF-295
[12] = test system: OVCAR-5
[13] = test system: SW-620
[14] = test system: EKVX
[15] = test system: DMS-114
[16] = test system: Malme-3M
[17] = test system: HT-29
[18] = test system: UACC-257
[19] = test system: RXF 393
[20] = test system: SK-OV-3
[21] = test system: DLD-1
[22] = test system: KM12
[23] = test system: 786-0
[24] = test system: SNB-78
[25] = test system: CAKI-1
[26] = test system: UACC-62
[27] = test system: A549
[28] = test system: NCI-H522
[29] = test system: NCI-H23
[30] = test system: OVCAR-3
[31] = test system: SN12C
[32] = test system: CCRF-CEM
[33] = test system: DMS-273
[34] = test system: SK-MEL-28
[35] = test system: TK-10
[36] = test system: HOP-92
[37] = test system: HOP-18
[38] = test system: A498
[39] = test system: U-251
[40] = test system: KM-20L2
[41] = test system: LOX IMVI
[42] = test system: HCT-15
[43] = test system: NCI-H460
[44] = test system: K562
[45] = test system: HCC 2998
[46] = test system: ACHN
[47] = test system: NCI-H226
[48] = test system: UO-31
[49] = test system: SNB-19
[50] = test system: MOLT-4
[51] = test system: M14
[52] = test system: IGROV-1
[53] = test system: OVCAR-8
[54] = test system: XF498
[55] = test system: LXFL 529
[56] = test system: RPMI-8226
[57] = test system: HL-60
[58] = test system: SR

Q: Which results are given for CN(C)C(=O)C1CCC(=C2C(=O)OC(C)(C)OC2=O)N1C (stereo not drawn)?
A: GI50 [1]: > 100 µM (inactive); GI50 [2]: > 100 µM (inactive); GI50 [3]: > 100 µM (inactive); GI50 [4]: > 100 µM (inactive); GI50 [5]: > 100 µM (inactive); GI50 [6]: > 100 µM (inactive); GI50 [7]: > 100 µM (inactive); GI50 [8]: > 100 µM (inactive); GI50 [9]: > 100 µM (inactive); GI50 [10]: > 100 µM (inactive); GI50 [11]: > 100 µM (inactive); GI50 [12]: > 100 µM (inactive); GI50 [13]: > 100 µM (inactive); GI50 [14]: > 100 µM (inactive); GI50 [15]: > 100 µM (inactive); GI50 [16]: > 100 µM (inactive); GI50 [17]: > 100 µM (inactive); GI50 [18]: > 100 µM (inactive); GI50 [19]: > 100 µM (inactive); GI50 [20]: > 100 µM (inactive); GI50 [21]: > 100 µM (inactive); GI50 [22]: > 100 µM (inactive); GI50 [23]: > 100 µM (inactive); GI50 [24]: > 100 µM (inactive); GI50 [25]: > 100 µM (inactive); GI50 [26]: > 100 µM (inactive); GI50 [27]: > 100 µM (inactive); GI50 [28]: > 100 µM (inactive); GI50 [29]: > 100 µM (inactive); GI50 [30]: > 100 µM (inactive); GI50 [31]: > 100 µM (inactive); GI50 [32]: > 100 µM (inactive); GI50 [33]: > 100 µM (inactive); GI50 [34]: > 100 µM (inactive); GI50 [35]: > 100 µM (inactive); GI50 [36]: > 100 µM (inactive); GI50 [37]: > 100 µM (inactive); GI50 [38]: > 100 µM (inactive); GI50 [39]: > 100 µM (inactive); GI50 [40]: > 100 µM (inactive); GI50 [41]: > 100 µM (inactive); GI50 [42]: > 100 µM; GI50 [43]: > 100 µM (inactive); GI50 [44]: > 100 µM (inactive); GI50 [45]: > 100 µM (inactive); GI50 [46]: > 100 µM (inactive); GI50 [47]: > 100 µM (inactive); GI50 [48]: > 100 µM (inactive); GI50 [49]: > 100 µM (inactive); GI50 [50]: > 100 µM (inactive); GI50 [51]: > 100 µM (inactive); GI50 [52]: > 100 µM (inactive); GI50 [53]: > 100 µM (inactive); GI50 [54]: > 100 µM (inactive); GI50 [55]: > 100 µM (inactive)

Q: What does the source list for COC(=O)/C=C(\C)CCC1SC1(C)C (stereo not drawn)?
A: GI50 [1]: > 100 µM (inactive); GI50 [2]: > 100 µM (inactive); GI50 [3]: > 100 µM (inactive); GI50 [4]: > 100 µM (inactive); GI50 [5]: > 100 µM (inactive); GI50 [6]: > 100 µM (inactive); GI50 [7]: > 100 µM (inactive); GI50 [8]: > 100 µM (inactive); GI50 [9]: > 100 µM (inactive); GI50 [10]: > 100 µM (inactive); GI50 [11]: > 100 µM (inactive); GI50 [56]: > 100 µM (inactive); GI50 [12]: > 100 µM (inactive); GI50 [13]: 77.3 µM (inactive); GI50 [14]: > 100 µM (inactive); GI50 [15]: 91.8 µM (inactive); GI50 [16]: > 100 µM (inactive); GI50 [17]: > 100 µM (inactive); GI50 [18]: > 100 µM (inactive); GI50 [19]: > 100 µM (inactive); GI50 [20]: > 100 µM (inactive); GI50 [21]: > 100 µM (inactive); GI50 [22]: > 100 µM (inactive); GI50 [23]: > 100 µM (inactive); GI50 [24]: > 100 µM (inactive); GI50 [57]: > 100 µM (inactive); GI50 [25]: > 100 µM (inactive); GI50 [26]: > 100 µM (inactive); GI50 [27]: > 100 µM (inactive); GI50 [28]: > 100 µM (inactive); GI50 [29]: > 100 µM (inactive); GI50 [31]: > 100 µM (inactive); GI50 [32]: > 100 µM (inactive); GI50 [33]: > 100 µM (inactive); GI50 [34]: > 100 µM (inactive); GI50 [35]: > 100 µM (inactive); GI50 [37]: > 100 µM (inactive); GI50 [38]: > 100 µM (inactive); GI50 [39]: > 100 µM (inactive); GI50 [40]: > 100 µM (inactive); GI50 [41]: > 100 µM (inactive); GI50 [42]: > 100 µM; GI50 [43]: > 100 µM (inactive); GI50 [44]: > 100 µM (inactive); GI50 [45]: > 100 µM (inactive); GI50 [46]: > 100 µM (inactive); GI50 [47]: > 100 µM (inactive); GI50 [48]: > 100 µM (inactive); GI50 [49]: > 100 µM (inactive); GI50 [50]: > 100 µM (inactive); GI50 [51]: > 100 µM (inactive); GI50 [52]: > 100 µM (inactive); GI50 [53]: > 100 µM (inactive); GI50 [54]: > 100 µM (inactive); GI50 [55]: > 100 µM (inactive)

Q: With CN(C)/N=N/c1ccc(C(N)=O)cc1 as the compound, how does the GI50 [1] read?
A: Its GI50 is > 100 µM (inactive).

Q: And the GI50 [2]?
A: The GI50 was > 100 µM (inactive).

Q: What about the GI50 [3] of the same compound?
A: The GI50 was > 100 µM (inactive).

Q: What about the GI50 [4] of the same compound?
A: Its GI50 is > 100 µM (inactive).

Q: What about the GI50 [5] of the same compound?
A: Its GI50 is > 100 µM (inactive).

Q: What about the GI50 [6] of the same compound?
A: The GI50 was 97.7 µM (inactive).

Q: What about the GI50 [7] of the same compound?
A: Its GI50 is > 100 µM (inactive).

Q: And the GI50 [8]?
A: Its GI50 is > 100 µM (inactive).

Q: What about the GI50 [9] of the same compound?
A: Its GI50 is > 100 µM (inactive).

Q: And the GI50 [10]?
A: Its GI50 is > 100 µM (inactive).

Q: And the GI50 [11]?
A: The GI50 was > 100 µM (inactive).

Q: And the GI50 [56]?
A: The GI50 was > 100 µM (inactive).

Q: And the GI50 [12]?
A: Its GI50 is > 100 µM (inactive).

Q: And the GI50 [13]?
A: Its GI50 is > 100 µM (inactive).

Q: What about the GI50 [14] of the same compound?
A: Its GI50 is > 100 µM (inactive).

Q: What about the GI50 [15] of the same compound?
A: Its GI50 is > 100 µM (inactive).

Q: And the GI50 [16]?
A: The GI50 was > 100 µM (inactive).

Q: And the GI50 [17]?
A: Its GI50 is > 100 µM (inactive).

Q: And the GI50 [18]?
A: Its GI50 is > 100 µM (inactive).

Q: And the GI50 [19]?
A: The GI50 was > 100 µM (inactive).

Q: What about the GI50 [20] of the same compound?
A: Its GI50 is > 100 µM (inactive).

Q: What about the GI50 [21] of the same compound?
A: Its GI50 is > 100 µM (inactive).

Q: And the GI50 [22]?
A: Its GI50 is > 100 µM (inactive).

Q: And the GI50 [23]?
A: The GI50 was > 100 µM (inactive).

Q: What about the GI50 [24] of the same compound?
A: The GI50 was > 100 µM (inactive).

Q: And the GI50 [57]?
A: Its GI50 is > 100 µM (inactive).

Q: What about the GI50 [25] of the same compound?
A: The GI50 was > 100 µM (inactive).

Q: And the GI50 [26]?
A: The GI50 was > 100 µM (inactive).

Q: And the GI50 [27]?
A: Its GI50 is > 100 µM (inactive).

Q: And the GI50 [28]?
A: The GI50 was > 100 µM (inactive).

Q: And the GI50 [29]?
A: Its GI50 is > 100 µM (inactive).

Q: What about the GI50 [30] of the same compound?
A: Its GI50 is > 100 µM (inactive).

Q: What about the GI50 [31] of the same compound?
A: The GI50 was > 100 µM (inactive).

Q: What about the GI50 [32] of the same compound?
A: The GI50 was > 100 µM (inactive).

Q: And the GI50 [33]?
A: Its GI50 is > 100 µM (inactive).

Q: And the GI50 [34]?
A: Its GI50 is > 100 µM (inactive).

Q: What about the GI50 [35] of the same compound?
A: The GI50 was > 100 µM (inactive).

Q: And the GI50 [36]?
A: The GI50 was > 100 µM (inactive).

Q: What about the GI50 [37] of the same compound?
A: Its GI50 is > 100 µM (inactive).

Q: What about the GI50 [38] of the same compound?
A: Its GI50 is > 100 µM (inactive).

Q: What about the GI50 [39] of the same compound?
A: The GI50 was > 100 µM (inactive).

Q: What about the GI50 [40] of the same compound?
A: The GI50 was > 100 µM (inactive).

Q: What about the GI50 [41] of the same compound?
A: The GI50 was > 100 µM (inactive).

Q: And the GI50 [42]?
A: Its GI50 is > 100 µM.

Q: And the GI50 [43]?
A: Its GI50 is > 100 µM (inactive).

Q: What about the GI50 [44] of the same compound?
A: The GI50 was > 100 µM (inactive).

Q: What about the GI50 [45] of the same compound?
A: Its GI50 is > 100 µM (inactive).

Q: What about the GI50 [46] of the same compound?
A: The GI50 was > 100 µM (inactive).

Q: What about the GI50 [58] of the same compound?
A: Its GI50 is > 100 µM (inactive).

Q: What about the GI50 [47] of the same compound?
A: Its GI50 is > 100 µM (inactive).

Q: What about the GI50 [48] of the same compound?
A: Its GI50 is > 100 µM (inactive).

Q: What about the GI50 [49] of the same compound?
A: The GI50 was > 100 µM (inactive).

Q: What about the GI50 [50] of the same compound?
A: The GI50 was > 100 µM (inactive).

Q: And the GI50 [51]?
A: Its GI50 is > 100 µM (inactive).

Q: And the GI50 [52]?
A: The GI50 was > 100 µM (inactive).

Q: What about the GI50 [53] of the same compound?
A: Its GI50 is > 100 µM (inactive).

Q: What about the GI50 [54] of the same compound?
A: The GI50 was > 100 µM (inactive).

Q: And the GI50 [55]?
A: The GI50 was > 100 µM (inactive).

From ChEMBL document CHEMBL1201862, “PubChem BioAssay data set” (2004)
